For 10 molecules, GI50 and TGI results are on record in PubChem BioAssay (NCI).

Some test systems named below: HL-60(TB) leukemia; MOLT-4 leukemia; SW-620 colon; NCI-H226 lung; OVCAR-5 ovarian; IGROV1 ovarian; SK-MEL-2 melanoma; EKVX NSCLC; MCF7 breast; UACC-62 melanoma.
What all share (test): growth of human tumour cells (NCI), 48 h

Molecules are shown by their SMILES.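 Growth conditions: 96-well plates. Treatment: test compound, 48 hours, 5 concentrations. Analysis: linear interpolation between bracketing concentrations; unreached endpoints set to highest concentration. At the GI50, growth is halved. TGI: concentration producing complete growth inhibition.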 Where only a bound is given, the exact number is not on record here.

Consider `CC1=C(C)C(=O)c2c(c(C(=O)c3ccccc3)c3nc4ccccc4n3c2C)C1=O`, for which the GI50 in the experiment on HL-60(TB) leukemia was greater than 100 µM; in the experiment with MOLT-4 leukemia, greater than 100 µM; with SW-620 colon, greater than 100 µM; in the experiment on NCI-H226 lung, greater than 100 µM; with OVCAR-5 ovarian it was greater than 100 µM; in the experiment with IGROV1 ovarian it was 55.2 µM. In addition, the GI50 with SK-MEL-2 melanoma is 47.8 µM; in the experiment with EKVX NSCLC, 68.2 µM; with MCF7 breast, 70.1 µM; in the experiment on UACC-62 melanoma it was 35 µM. The TGI with HL-60(TB) leukemia, in the experiment with MOLT-4 leukemia, in the experiment on SW-620 colon, in the experiment on NCI-H226 lung, with OVCAR-5 ovarian and with IGROV1 ovarian was greater than 100 µM in each case. For the same molecule, the TGI in the experiment on SK-MEL-2 melanoma, in the experiment with EKVX NSCLC, with MCF7 breast and with UACC-62 melanoma was greater than 100 µM in each case.
With `C=C1C(=O)O[C@@H]2C[C@@H]1CC[C@]1(C)O[C@H]1CC[C@@]1(C)O[C@@H]1CC[C@@]2(C)O`, the GI50 was 15.2 µM in the experiment on HL-60(TB) leukemia; 13.5 µM in the experiment with MOLT-4 leukemia; 29.2 µM in the experiment with SW-620 colon; 26.7 µM in the experiment with NCI-H226 lung; 29.2 µM with OVCAR-5 ovarian; 24.3 µM with IGROV1 ovarian. For the same molecule, the GI50 was 50.1 µM in the experiment with SK-MEL-2 melanoma, 59.8 µM in the experiment on EKVX NSCLC, 99.8 µM in the experiment on MCF7 breast and 42 µM in the experiment on UACC-62 melanoma. Further, the TGI is 46.5 µM with HL-60(TB) leukemia; 36.7 µM in the experiment with MOLT-4 leukemia; greater than 100 µM with SW-620 colon; 86.2 µM in the experiment on NCI-H226 lung; greater than 100 µM in the experiment on OVCAR-5 ovarian; greater than 100 µM with IGROV1 ovarian. Further, the TGI in the experiment on SK-MEL-2 melanoma, with EKVX NSCLC, with MCF7 breast and in the experiment on UACC-62 melanoma was greater than 100 µM each time.
Take `COc1ccc(C(=O)Cn2c(C(=O)c3ccc(Cl)cc3)nc3ccccc32)cc1`: the GI50 in the experiment with HL-60(TB) leukemia was 3.11 µM; with MOLT-4 leukemia, 3.83 µM; in the experiment on SW-620 colon, 4.4 µM; with NCI-H226 lung it was greater than 100 µM; with OVCAR-5 ovarian it was greater than 66.3 µM; in the experiment on IGROV1 ovarian, 25.7 µM. Further, the GI50 was greater than 32.7 µM in the experiment with SK-MEL-2 melanoma, greater than 42.9 µM in the experiment with EKVX NSCLC, 3 µM in the experiment on MCF7 breast and greater than 28.4 µM in the experiment on UACC-62 melanoma. The TGI with HL-60(TB) leukemia was greater than 53.3 µM; in the experiment with MOLT-4 leukemia, greater than 100 µM; in the experiment with SW-620 colon it was greater than 100 µM; with NCI-H226 lung, greater than 100 µM; in the experiment with OVCAR-5 ovarian it was greater than 100 µM; with IGROV1 ovarian it was greater than 100 µM. Besides, the TGI with SK-MEL-2 melanoma, in the experiment on EKVX NSCLC, with MCF7 breast and with UACC-62 melanoma was greater than 100 µM each time.
For `CCN1C(=O)C/C(=C\C(C)=O)Nc2ccccc21`, the GI50 in the experiment with HL-60(TB) leukemia and in the experiment with MCF7 breast was greater than 100 µM in each case. Further, the TGI in the experiment with HL-60(TB) leukemia, in the experiment on MOLT-4 leukemia, in the experiment on SW-620 colon, with NCI-H226 lung, with OVCAR-5 ovarian and in the experiment on IGROV1 ovarian was greater than 100 µM each time. Further, the TGI in the experiment with SK-MEL-2 melanoma, in the experiment with EKVX NSCLC, with MCF7 breast and in the experiment on UACC-62 melanoma was greater than 100 µM each time.
Turning to `COc1cccc(-c2nn(-c3ccccc3)cc2-c2ccnc(NCCNS(=O)(=O)c3ccc(Cl)cc3)c2)c1`, the GI50 is 2.56 µM in the experiment with HL-60(TB) leukemia; 2.56 µM in the experiment on MOLT-4 leukemia; 5.44 µM with SW-620 colon; 7.21 µM in the experiment with NCI-H226 lung; greater than 100 µM with OVCAR-5 ovarian; 6.63 µM in the experiment on IGROV1 ovarian. The GI50 in the experiment with SK-MEL-2 melanoma was 3.84 µM; with EKVX NSCLC, 3.84 µM; with MCF7 breast, 2.98 µM; in the experiment with UACC-62 melanoma, 5.51 µM. The TGI with HL-60(TB) leukemia is 17.9 µM; in the experiment on MOLT-4 leukemia it was 9 µM; with SW-620 colon, greater than 100 µM; in the experiment with NCI-H226 lung, greater than 100 µM; in the experiment with OVCAR-5 ovarian, greater than 100 µM; in the experiment with IGROV1 ovarian, greater than 100 µM. Besides, the TGI in the experiment with SK-MEL-2 melanoma was 26.9 µM; in the experiment with EKVX NSCLC, greater than 100 µM; in the experiment with MCF7 breast, 18.4 µM; in the experiment with UACC-62 melanoma, greater than 100 µM.
As to `C[Si](C)(C)C#CCO[Si](C)(C)C`, the TGI is greater than 61 µM with HL-60(TB) leukemia; 58.4 µM in the experiment on MOLT-4 leukemia; greater than 100 µM in the experiment with SW-620 colon; greater than 100 µM with NCI-H226 lung; greater than 100 µM in the experiment with OVCAR-5 ovarian; 36.8 µM in the experiment on IGROV1 ovarian. In addition, the TGI with SK-MEL-2 melanoma, in the experiment on EKVX NSCLC, with MCF7 breast and in the experiment with UACC-62 melanoma was greater than 100 µM throughout.
Take `COc1ccc(C(=O)Cn2c(C(=O)c3ccc(OC)cc3)nc3ccccc32)cc1`: the GI50 was 0.436 µM in the experiment with HL-60(TB) leukemia; 0.861 µM with MOLT-4 leukemia; 0.816 µM with SW-620 colon; greater than 28.5 µM with NCI-H226 lung; greater than 25.1 µM in the experiment on OVCAR-5 ovarian; 5.09 µM in the experiment on IGROV1 ovarian. Besides, the GI50 was 12.6 µM in the experiment with SK-MEL-2 melanoma, 18.9 µM in the experiment with EKVX NSCLC, 1.36 µM in the experiment with MCF7 breast and 3.47 µM with UACC-62 melanoma. Moreover, the TGI is 10.8 µM in the experiment with HL-60(TB) leukemia; greater than 100 µM in the experiment on MOLT-4 leukemia; greater than 100 µM in the experiment on SW-620 colon; greater than 100 µM in the experiment with NCI-H226 lung; greater than 100 µM in the experiment with OVCAR-5 ovarian; greater than 100 µM in the experiment on IGROV1 ovarian. Also, the TGI with SK-MEL-2 melanoma, with EKVX NSCLC, in the experiment on MCF7 breast and in the experiment on UACC-62 melanoma was greater than 100 µM throughout.
For the molecule `CS(=O)(=O)c1ccc(Oc2cc(F)cc(C#N)c2)c2c1[C@H](O)[C@H](F)[C@@H]2F`, the GI50 in the experiment on HL-60(TB) leukemia, in the experiment with MOLT-4 leukemia, in the experiment on SW-620 colon, in the experiment with NCI-H226 lung, with OVCAR-5 ovarian and in the experiment with IGROV1 ovarian was greater than 100 µM in each case. Besides, the GI50 in the experiment with SK-MEL-2 melanoma, in the experiment with EKVX NSCLC, with MCF7 breast and in the experiment with UACC-62 melanoma was greater than 100 µM throughout. For the same molecule, the TGI with HL-60(TB) leukemia, in the experiment with MOLT-4 leukemia, in the experiment with SW-620 colon, in the experiment on NCI-H226 lung, in the experiment with OVCAR-5 ovarian and in the experiment on IGROV1 ovarian was greater than 100 µM throughout. In addition, the TGI in the experiment on SK-MEL-2 melanoma, in the experiment with EKVX NSCLC, in the experiment with MCF7 breast and in the experiment with UACC-62 melanoma was greater than 100 µM in each case.
Consider `Nc1c(C(=O)Nc2ccccc2)sc2nc3c(cc12)CCCCCC3`, for which the GI50 in the experiment with HL-60(TB) leukemia is 0.299 µM; in the experiment with MOLT-4 leukemia, 0.422 µM; in the experiment with SW-620 colon, 0.36 µM; with NCI-H226 lung, 0.652 µM; in the experiment on OVCAR-5 ovarian, 0.699 µM; with IGROV1 ovarian, 0.863 µM. In addition, the GI50 is 0.857 µM in the experiment with SK-MEL-2 melanoma, 0.591 µM with EKVX NSCLC, 0.288 µM in the experiment on MCF7 breast and 0.428 µM with UACC-62 melanoma. For the same molecule, the TGI in the experiment on HL-60(TB) leukemia is 4.55 µM; in the experiment on MOLT-4 leukemia it was greater than 50.9 µM; with SW-620 colon it was 50.9 µM; in the experiment with NCI-H226 lung it was 12.7 µM; in the experiment with OVCAR-5 ovarian, 16.9 µM; with IGROV1 ovarian it was 19.9 µM. Further, the TGI was 8.89 µM in the experiment on SK-MEL-2 melanoma, 25.2 µM in the experiment with EKVX NSCLC, 11.8 µM in the experiment on MCF7 breast and 12.9 µM with UACC-62 melanoma.
Take `CCn1c(=O)c(-c2ccn[nH]2)cc2c(C)nc(N)nc21`: the GI50 in the experiment on HL-60(TB) leukemia was 2.88 µM; with MOLT-4 leukemia, 0.846 µM; in the experiment with SW-620 colon, 2.85 µM; in the experiment on NCI-H226 lung, 2.41 µM; in the experiment on OVCAR-5 ovarian it was 0.539 µM; in the experiment on IGROV1 ovarian, 0.32 µM. The GI50 was 2.25 µM in the experiment with SK-MEL-2 melanoma, 0.691 µM with EKVX NSCLC, 0.389 µM with MCF7 breast and 0.687 µM in the experiment on UACC-62 melanoma. For the same molecule, the TGI in the experiment with HL-60(TB) leukemia was greater than 100 µM; with MOLT-4 leukemia, 51 µM; with SW-620 colon, greater than 100 µM; in the experiment with NCI-H226 lung, greater than 100 µM; with OVCAR-5 ovarian, 10.6 µM; with IGROV1 ovarian, 2.17 µM. Also, the TGI in the experiment with SK-MEL-2 melanoma is 9.58 µM; with EKVX NSCLC, 11.1 µM; in the experiment with MCF7 breast it was greater than 100 µM; with UACC-62 melanoma it was 3.54 µM.
